Test results from patent publication US20230265116A1, “DEGRADATION OF (EGFR) BY CONJUGATION OF EGFR INHIBITORS WITH E3 LIGASE LIGAND AND METHODS OF USE” (BEIGENE, LTD., priority 2020, published 2023).

How the values were obtained:
[1] = system: EGFR Del19/T790M/C797S (BaF3-DTC cells); assay: EGFR degradation HTRF assay, BaF3-DTC cells; assay type: cell-based; details: 16h treatment; for DTC Dmax (%): maximum percentage of degradation; for DC50: read-out: DTC DC50
Protocol: BaF3 WT(wild type), BaF3-LTC(L858R/T790M/C797S) and BaF3-DTC(Del19/T790M/C797S) cells are treated with compounds diluted in 0.2% DMSO cell culture medium and incubate for 16h, 37° C., 5% CO2, H1975-#36, H1975-#28, H1975-#23 and HCC827 cells are treated with compounds diluted in 0.2% DMSO cell culture medium on day 2, incubate for 16h, 37° C., 5% CO2.the final concentriation of compounds in all assay is start with 10 uM, 5-fold dilution, total 8 doses were included.
After 16h treatment, add HTRF lysis buffer to each well; seal the plate and incubate 1 hour at room temperature on a plate shaker; Once the cells are lysed, 16 μL of cell lysate are transferred to a PE 384-well HTRF detection plate; 4 μL of pre-mixed HTRF antibodies are added to each well; Cover the plate with a plate sealer, spin 1000 rpm for 1 min, Incubate overnight at room temperature; Read on BMG PheraStar with HTRF protocol (337 nm-665 nm-620 nm).
The inhibition (degradation) percentage of the compound was calculated by the following equation: Inhibition percentage of Compound=100-100×(Signal-low control)/(High control-low control), wherein signal=each test compound group
High control=Cell group with added DMSO and without compound, indicating microplate readings without EGFR degradation;
Dmax is the maximum percentage of inhibition (degradation).
The IC50 (DC50) value of a compound can be obtained by fitting the following equation
Y=Bottom+(TOP−Bottom)/(1+((IC50/X)^hillslope))
Wherein, X and Y are known values, and IC50, Hillslope, Top and Bottom are the parameters obtained by fitting with software. Y is the inhibition percentage (calculated from the equation), X is the concentration of the compound; IC50 is the concentration of the compound when the 50% inhibition is reached. The smaller the IC50 value is, the stronger the inhibitory ability of the compound is. Vice versa, the higher the IC50 value is, the weaker the inhibitory ability of the compound is; Hillslope represents the slope of the fitted curve, generally around 1*; Bottom represents the minimum value of the curve obtained by data fitting, which is generally 0%±20%; Top represents the maximum value of the curve obtained by data fitting, which is generally 100%±20%. The experimental data were fitted by calculating and analyzing with Dotmatics data analysis software.

[2] = biological target: T1, EGFR L858R/T790M/C797S (BaF3-LTC cells) (Homo sapiens, UniProt P00533, C797S/L858R/T790M); assay: EGFR degradation HTRF assay, BaF3-LTC cells; assay type: cell-based; details: BaF3-LTC, 16h treatment; for Dmax: maximum percentage of degradation, read-out: LTC Dmax (%); for DC50: read-out: LTC DC50
T1 construct: expressed in transfected cells; host or cells: BaF3
In short: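 EGFR remaining after a 16 h, 37 °C exposure (8 doses, 5-fold steps from 10 uM final, 0.2% DMSO) was quantified by HTRF antibodies in cell lysate. Percent inhibition relative to DMSO control was fitted by four-parameter logistic to give DC50; Dmax denotes maximal degradation.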

T1 sequence (P00533 25-1210 T790M/C797S/L858R): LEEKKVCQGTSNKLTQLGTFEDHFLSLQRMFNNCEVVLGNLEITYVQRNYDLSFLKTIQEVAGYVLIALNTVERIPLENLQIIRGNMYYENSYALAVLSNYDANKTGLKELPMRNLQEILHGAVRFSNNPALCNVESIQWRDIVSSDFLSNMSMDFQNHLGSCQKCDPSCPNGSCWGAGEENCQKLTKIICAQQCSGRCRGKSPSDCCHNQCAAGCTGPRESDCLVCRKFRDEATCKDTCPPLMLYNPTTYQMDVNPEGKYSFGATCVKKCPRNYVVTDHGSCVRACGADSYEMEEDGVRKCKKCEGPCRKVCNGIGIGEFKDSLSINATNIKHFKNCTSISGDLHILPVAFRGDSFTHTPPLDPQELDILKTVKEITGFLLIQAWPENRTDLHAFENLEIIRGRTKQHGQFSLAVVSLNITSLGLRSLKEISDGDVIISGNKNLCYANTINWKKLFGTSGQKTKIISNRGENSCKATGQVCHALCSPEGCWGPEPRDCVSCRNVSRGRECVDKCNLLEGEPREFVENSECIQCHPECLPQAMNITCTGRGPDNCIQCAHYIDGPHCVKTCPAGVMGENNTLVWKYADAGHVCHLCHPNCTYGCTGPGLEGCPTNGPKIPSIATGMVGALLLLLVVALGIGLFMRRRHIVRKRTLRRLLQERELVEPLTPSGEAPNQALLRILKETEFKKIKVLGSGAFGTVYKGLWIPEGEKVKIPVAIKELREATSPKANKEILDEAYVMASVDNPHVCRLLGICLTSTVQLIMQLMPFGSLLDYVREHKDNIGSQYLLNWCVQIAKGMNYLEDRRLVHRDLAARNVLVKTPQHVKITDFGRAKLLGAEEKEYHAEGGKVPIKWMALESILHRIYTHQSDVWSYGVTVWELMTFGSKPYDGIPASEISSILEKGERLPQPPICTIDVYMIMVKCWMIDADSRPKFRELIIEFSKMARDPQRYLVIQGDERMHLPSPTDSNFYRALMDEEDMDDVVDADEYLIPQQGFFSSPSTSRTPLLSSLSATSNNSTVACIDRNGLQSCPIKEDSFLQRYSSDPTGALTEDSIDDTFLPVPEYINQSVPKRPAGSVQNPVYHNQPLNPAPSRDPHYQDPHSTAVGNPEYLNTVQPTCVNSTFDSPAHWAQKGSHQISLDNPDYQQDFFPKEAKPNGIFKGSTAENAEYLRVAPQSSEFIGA

Row | DC50 [1] | Dmax [2] | DC50 [2] | Compound | DTC Dmax (%) [1]
1 | 18.1 nM | 84.2% | 44 nM | CCc1cc(Nc2ncc(Br)c(Nc3ccc4nccnc4c3P(C)(C)=O)n2)c(OC)cc1N1CCC(N2CCN(CCc3cc(F)c(C4CCC(=O)NC4=O)cc3Cl)CC2)CC1 (centres unmarked) [Example 165, 3-(4-(2-(4-(1-(4-((5-bromo-4-((5-(dimethylphosphoryl)quinoxalin-6-yl)amino)pyrimidin-2-yl)amino)-2-ethyl-5-methoxyphenyl)piperidin-4-yl)piperazin-1-yl)ethyl)-5-chloro-2-fluorophenyl)piperidine-2,6-dione] | 82.21%
2 | 3.04 nM | 89.2% | 6.06 nM | CCc1cc(Nc2ncc(Br)c(Nc3ccc4nc(C)ccc4c3P(C)(C)=O)n2)c(OC)cc1N1CCC(N2CCN(C(=O)C34CCC(Nc5cc(F)c(C6CCC(=O)NC6=O)c(F)c5)(CC3)C4)CC2)CC1 (centres unmarked) [Example 699, 3-(4-((4-(4-(1-(4-((5-bromo-4-((5-(dimethylphosphoryl)-2-methylquinolin-6-yl)amino)pyrimidin-2-yl)amino)-2-ethyl-5-methoxyphenyl)piperidin-4-yl)piperazine-1-carbonyl)bicyclo[2.2.1]heptan-1-yl)amino)-2,6-difluorophenyl)piperidine-2,6-dione] | 85.08%
3 | 6.3 nM | 83% | 33.5 nM | CCc1cc(Nc2ncc(Br)c(Nc3ccc4nccnc4c3P(C)(C)=O)n2)c(OC)cc1N1CCC(N2CCN(C(=O)[C@H]3C[C@H](N(C)c4ccc5c(c4)C(=O)N(C4CCC(=O)NC4=O)C5=O)C3)CC2)CC1 (some centres unmarked) [Example 236, 5-(((1r,3r)-3-(4-(1-(4-((5-bromo-4-((5-(dimethylphosphoryl)quinoxalin-6-yl)amino)pyrimidin-2-yl)amino)-2-ethyl-5-methoxyphenyl)piperidin-4-yl)piperazine-1-carbonyl)cyclobutyl)(methyl)amino)-2-(2,6-dioxopiperidin-3-yl)isoindoline-1,3-dione] | 90.89%
4 | 4.19 nM | 86.3% | 11 nM | CCc1cc(Nc2ncc(Br)c(Nc3ccc4nccnc4c3P(C)(C)=O)n2)c(OC)cc1N1CCC(N2CCN(C(=O)[C@H]3CCN(c4ccc5c(c4)C(=O)N(C4CCC(=O)NC4=O)C5=O)C3)CC2)CC1 (stereo partly drawn) [Example 66, 5-((S)-3-(4-(1-(4-((5-bromo-4-((5-(dimethylphosphoryl)quinoxalin-6-yl)amino)pyrimidin-2-yl)amino)-2-ethyl-5-methoxyphenyl)piperidin-4-yl)piperazine-1-carbonyl)pyrrolidin-1-yl)-2-(2,6-dioxopiperidin-3-yl)isoindoline-1,3-dione] | 92.43%
5 | 4.87 nM | 91.8% | 10.3 nM | CCc1cc(Nc2ncc(Br)c(Nc3ccc4nccnc4c3P(C)(C)=O)n2)c(OC)cc1N1CCC(N2CCN(C(=O)C3CN(c4ccc5c(c4)C(=O)N(C4CCC(=O)NC4=O)C5)C3)CC2)CC1 (centres unmarked) [Example 227, 3-(6-(3-(4-(1-(4-((5-bromo-4-((5-(dimethylphosphoryl)quinoxalin-6-yl)amino)pyrimidin-2-yl)amino)-2-ethyl-5-methoxyphenyl)piperidin-4-yl)piperazine-1-carbonyl)azetidin-1-yl)-1-oxoisoindolin-2-yl)piperidine-2,6-dione] | 90.5%
6 | 2.72 nM | 91.4% | 4.75 nM | CCc1cc(Nc2ncc(Br)c(Nc3ccc4nc(C)ccc4c3P(C)(C)=O)n2)c(OC)cc1N1CCC(N2CCN(CCc3ccc4c(cnn4C4CCC(=O)NC4=O)c3)CC2)CC1 (centres unmarked) [Example 211, 3-(5-(2-(4-(1-(4-((5-bromo-4-((5-(dimethylphosphoryl)-2-methylquinolin-6-yl)amino)pyrimidin-2-yl)amino)-2-ethyl-5-methoxyphenyl)piperidin-4-yl)piperazin-1-yl)ethyl)-1H-indazol-1-yl)piperidine-2,6-dione] | 94.88%
7 | 15.6 nM | 85.7% | 31 nM | COc1cc(N2CCN(C3CN(CCC4CCN(c5cc(F)c(C6CCC(=O)NC6=O)c(F)c5)CC4)C3)CC2)c(C)cc1Nc1ncc(Br)c(Nc2ccc3nccnc3c2P(C)(C)=O)n1 (centres unmarked) [Example 204, 3-(4-(4-(2-(3-(4-(4-((5-bromo-4-((5-(dimethylphosphoryl)quinoxalin-6-yl)amino)pyrimidin-2-yl)amino)-5-methoxy-2-methylphenyl)piperazin-1-yl)azetidin-1-yl)ethyl)piperidin-1-yl)-2,6-difluorophenyl)piperidine-2,6-dione] | 91.45%
8 | 1.47 nM | 93.9% | 4.13 nM | CCc1cc(Nc2ncc(Br)c(Nc3ccc4nc(C)ccc4c3P(C)(C)=O)n2)c(OC)cc1N1CCC(N2CCN(C(=O)[C@@H]3CCN(c4cc(F)c(C5CCC(=O)NC5=O)c(F)c4)C3)CC2)CC1 (stereo partly drawn) [Example 208, 3-(4-((R)-3-(4-(1-(4-((5-bromo-4-((5-(dimethylphosphoryl)-2-methylquinolin-6-yl)amino)pyrimidin-2-yl)amino)-2-ethyl-5-methoxyphenyl)piperidin-4-yl)piperazine-1-carbonyl)pyrrolidin-1-yl)-2,6-difluorophenyl)piperidine-2,6-dione] | 97.62%
9 | 5.6 nM | 89.3% | 13 nM | CCc1cc(Nc2ncc(Br)c(Nc3ccc4nccnc4c3P(C)(C)=O)n2)c(OC)cc1N1CCC(N2CCN(CC3CCN(c4ccc5c(c4)CN(C4CCC(=O)NC4=O)C5=O)CC3)CC2)CC1 (centres unmarked) [Example 244, 3-(5-(4-((4-(1-(4-((5-bromo-4-((5-(dimethylphosphoryl)quinoxalin-6-yl)amino)pyrimidin-2-yl)amino)-2-ethyl-5-methoxyphenyl)piperidin-4-yl)piperazin-1-yl)methyl)piperidin-1-yl)-1-oxoisoindolin-2-yl)piperidine-2,6-dione] | 88.74%
10 | 23.8 nM | 86.9% | 43 nM | CCc1cc(Nc2ncc(Br)c(Nc3ccc4nccnc4c3P(C)(C)=O)n2)c(OC)cc1N1CCC(N2CCN(C[C@H]3CCN(c4ccc5c(c4)C(=O)N(C4CCC(=O)NC4=O)C5=O)C3)CC2)CC1 (stereo partly drawn) [Example 232, 5-((R)-3-((4-(1-(4-((5-bromo-4-((5-(dimethylphosphoryl)quinoxalin-6-yl)amino)pyrimidin-2-yl)amino)-2-ethyl-5-methoxyphenyl)piperidin-4-yl)piperazin-1-yl)methyl)pyrrolidin-1-yl)-2-(2,6-dioxopiperidin-3-yl)isoindoline-1,3-dione] | 86.38%
11 | 5.98 nM | 91.4% | 17.1 nM | CCc1cc(Nc2ncc(Br)c(Nc3ccc4nc(C)ccc4c3P(C)(C)=O)n2)c(OC)cc1N1CCC(N2CCN([C@H]3C[C@@H](c4cc(F)c(C5CCC(=O)NC5=O)c(F)c4)C3)CC2)CC1 (some centres unmarked) [Example 717, 3-(4-((1s,3s)-3-(4-(1-(4-((5-bromo-4-((5-(dimethylphosphoryl)-2-methylquinolin-6-yl)amino)pyrimidin-2-yl)amino)-2-ethyl-5-methoxyphenyl)piperidin-4-yl)piperazin-1-yl)cyclobutyl)-2,6-difluorophenyl)piperidine-2,6-dione] | 94.13%
